Read-outs that look alike come from different tables or passages of the source.
Tests used:
[1] = Pharmacokinetics in mice (plasma exposure after oral administration); type: in vivo; settings: ICR mice, oral (i.g.) 3 mg/kg; for AUC(0-inf): mouse, read-out: After oral administration of 3 mg/kg, mouse plasma exposure AUCinf
Procedure: • LC-20AD high performance liquid chromatography (SHIMADZU, Japan) • API4000 triple quadrupole mass spectrometer (Applied Biosystem, USA) • Phenix Winnolin Pharmacokinetic software (Version 6.3, Certara, USA) • High speed freezing centrifuge (Thermo Fisher Scientific) • Analytical balance (Sartorius, SECURA225D-ICN) • ICR mice (Chengdu Dossy Experimental Animals CO., LTD.)
A suitable amount of drug was accurately weighed, and then the medium (5% DMSO, 15% HS-15, 80% DSW) was added to prepare the solution at a concentration of 0.1 mg/ml (i.v.) and 0.3 mg/ml (i.g.).
18 healthy adult ICR mice were divided into two groups (9 mice for i.v. group; 9 mice for i.g. group), and administered by tail vein or by gavage after fasting overnight (free drinking water); using the satellite blood collection method, 3 animals were collected at each time point, and then 0.1 ml of blood obtained at different time points was anticoagulated with EDTA-K2, centrifuged at 4° C. for 5 min to separate the plasma, and stored at −80° C. for detection. The sampling time points after i.v. administration were 5 min, 15 min, 0.5 h, 1 h, 2 h, 4 h, 8 h, 12 h, and 24 h; while the sampling time points for i.g. group were before administration (0 h) as well as 0.5 h, 1 h, 2 h, 4 h, 6 h, 8 h, 12 h, and 24 h after administration. Then, the drug concentration in plasma was determined by LC/MS/MS.

[2] = target: T1, androgen receptor (AR) splicing variant AR-v7 (Homo sapiens, UniProt P10275); assay: Degradation activity on androgen receptor splicing variant AR-v7 in 22RV1 cells (ELISA); type: cell-based; settings: AR-v7 degradation in 22RV1 cells, 48 h, class symbols
T1 construct: The degradation activity of compounds on AR-v7 in 22RV1 cells; host or cells: 22RV1 cells
T1 sequence (P10275 1-644 isoform P10275-3): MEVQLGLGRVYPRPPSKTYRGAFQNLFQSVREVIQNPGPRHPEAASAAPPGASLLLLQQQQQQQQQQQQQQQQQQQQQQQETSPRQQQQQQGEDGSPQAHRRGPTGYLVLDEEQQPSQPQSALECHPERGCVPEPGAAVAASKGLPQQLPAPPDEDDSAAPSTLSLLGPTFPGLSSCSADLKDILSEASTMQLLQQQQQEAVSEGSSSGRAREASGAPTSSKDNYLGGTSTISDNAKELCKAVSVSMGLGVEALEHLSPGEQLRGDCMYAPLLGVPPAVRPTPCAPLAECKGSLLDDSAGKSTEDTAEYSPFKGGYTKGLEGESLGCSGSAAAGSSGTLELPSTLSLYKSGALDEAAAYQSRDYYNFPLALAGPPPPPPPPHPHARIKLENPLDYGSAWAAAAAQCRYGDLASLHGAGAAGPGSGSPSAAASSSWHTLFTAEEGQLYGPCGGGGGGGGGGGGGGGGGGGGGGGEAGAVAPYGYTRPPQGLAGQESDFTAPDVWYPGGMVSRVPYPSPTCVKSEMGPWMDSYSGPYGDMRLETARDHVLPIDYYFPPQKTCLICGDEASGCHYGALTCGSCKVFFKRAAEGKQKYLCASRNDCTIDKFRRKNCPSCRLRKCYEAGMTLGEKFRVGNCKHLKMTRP

[3] = Homo sapiens, 22Rv1, 144 h, read-out: 22RV1 IC50 (nM), 22RV1 cells, 6 days culture, CCK-8, OD 450 nm

Structure (SMILES) | After oral administration of 3 mg/kg, mouse plasma exposure AUCinf (μg*h/mL) [1] | IC50 (22RV1 cells; [3]) | DC50 [2] | AUC(0-inf) [1] | IC50 (22RV1 cells; read-out: 22RV1 IC50, 22RV1 cells, 6 days culture, CCK-8, OD 450 nm)
CC(O)c1ncc(Oc2ccc(C(C)(C)c3ccc(O[C@H]4C[C@H](Nc5ccc6c(c5)C(=O)N(C5CCC(=O)NC5=O)C6=O)C4)cc3)cc2)cn1 (some centres unmarked) [Example 118] | A (30-5 μg*h/mL) | 3 nM | – | – | –
Cc1noc(-c2nccc(COc3ccc(C(C)(C)c4ccc(O[C@H]5C[C@@H](Nc6ccc7c(c6)C(=O)N(C6CCC(=O)NC6=O)C7=O)C5)cc4)cc3)n2)n1 (some centres unmarked) [Example 251] | – | 6 nM | < 10 nM | 1000 to 5000 ng·h/mL | –
C=CC(c1ccc(Oc2cnc(-c3noc(C)n3)nc2)cc1)c1ccc(O[C@H]2C[C@H](Nc3ccc4c(c3)C(=O)N(C3CCC(=O)NC3=O)C4=O)C2)cc1 (some centres unmarked) [Example 210] | – | 7 nM | < 10 nM | 5000 to 30000 ng·h/mL | –
CC(C)(c1ccc(OCc2ccnc(NC3CCN(CCCCO)CC3)n2)cc1)c1ccc(O[C@H]2C[C@H](Nc3ccc4c(c3)C(=O)N(C3CCC(=O)NC3=O)C4=O)C2)cc1 (some centres unmarked) [Example 239] | – | 3 nM | < 10 nM | 100 to 1000 ng·h/mL | –
Cc1nc(-c2ccc(Oc3ccc(C(C)(C)c4ccc(O[C@H]5C[C@H](Nc6ccc7c(c6)C(=O)N(C6CCC(=O)NC6=O)C7=O)C5)cc4)cc3)cn2)no1 (some centres unmarked) [Example 209] | A (30-5 μg*h/mL) | – | < 10 nM | – | 5 nM
O=C1CCC(N2C(=O)c3ccc(N[C@H]4C[C@H](Oc5ccc(C6(c7ccc(OCc8ccnc(N9CC%10(COC%10)C9)n8)cc7)COC6)cc5)C4)cc3C2=O)C(=O)N1 (some centres unmarked) [Example 355, 5-(((1r,3r)-3-(4-(3-(4-((2-(2-oxa-6-azaspiro[3.3]heptane-6-yl)pyrimidin-4-yl)methoxy)phenyl)oxetane-3-yl)phenoxy)cyclobutyl)amino)-2-(2,6-dioxopiperidin-3-yl)isoindolin-1,3-dione] | – | 2 nM | < 10 nM | 5000 to 30000 ng·h/mL | –
CC(O)c1ncc(Oc2ccc(C(C)(C)c3ccc(O[C@H]4C[C@H](Nc5ccc6c(c5)C(=O)N(C5CCC(=O)NC5=O)C6=O)C4)cn3)cc2)cn1 (some centres unmarked) [Example 223] | – | 0.5 nM | < 10 nM | 1000 to 5000 ng·h/mL | –
COc1ncc2c(n1)CN(c1ccc(C(C)(C)c3ccc(OC4CC(Nc5ccc6c(c5)C(=O)N(C5CCC(=O)NC5=O)C6=O)C4)cc3)cc1)CC2 (centres unmarked) [Example 188] | – | 12 nM | < 10 nM | 1000 to 5000 ng·h/mL | –
Cc1nc(-c2ccc(Oc3ccc(C(C)(C)c4ccc(O[C@H]5C[C@H](Nc6ccc7c(c6)C(=O)N(C6CCC(=O)NC6=O)C7=O)C5)cc4)cc3)nn2)no1 (some centres unmarked) [Example 328] | – | 5 nM | 11 to 100 nM | 5000 to 30000 ng·h/mL | –
CC(O)c1ncc(Oc2ccc(C3(c4ccc(O[C@H]5C[C@H](Nc6ccc7c(c6)C(=O)N(C6CCC(=O)NC6=O)C7=O)C5)cc4)CCCCC3)cc2)cn1 (some centres unmarked) [Example 528] | – | 2 nM | < 10 nM | 5000 to 30000 ng·h/mL | –
CC(=O)c1ccc(Oc2ccc(C(C)(C)c3ccc(O[C@H]4C[C@H](Nc5ccc6c(c5)C(=O)N(C5CCC(=O)NC5=O)C6=O)C4)cc3)cc2)nn1 (stereo partly drawn) [Example 126, 5-(((trans)-3-(4-(2-(4-((6-acetylpyridazine-3-yl)oxy)phenyl)propan-2-yl)phenoxy)cyclobutyl)amino)-2-(2,6-dioxopiperidin-3-yl)isoindolin-1,3-dione] | – | 6 nM | < 10 nM | 5000 to 30000 ng·h/mL | –
O=C1CCC(N2C(=O)c3ccc(N[C@H]4C[C@H](Oc5ccc(C6(c7ccc(OCc8ccnc(N9CC%10(COC%10)C9)n8)cc7)CCC6)cc5)C4)cc3C2=O)C(=O)N1 (some centres unmarked) [Example 358, 5-(((1r,3r)-3-(4-(1-(4-((2-(2-oxa-6-azaspiro[3.3]heptane-6-yl)pyrimidin-4-yl)methoxy)phenyl)cyclobutyl)phenoxy)cyclobutyl)amino)-2-(2,6-dioxopiperidin-3-yl)isoindolin-1,3-dione] | – | 9 nM | < 10 nM | 1000 to 5000 ng·h/mL | –
CC(C)(c1ccc(Oc2ccc(-n3nccn3)nc2)cc1)c1ccc(O[C@H]2C[C@H](Nc3ccc4c(c3)C(=O)N(C3CCC(=O)NC3=O)C4=O)C2)cc1 (some centres unmarked) [Example 206, 5-((1r,3r)-3-(4-(2-(4-((6-(2H-1,2,3-triazol-2-yl)pyridin-3-yl)oxy)phenyl)propan-2-ylphenoxy)cyclobutyl)amino)-2-(2,6-dioxopiperidin-3-yl)isoindolin-1,3-dione] | – | 10 nM | < 10 nM | 5000 to 30000 ng·h/mL | –
CC(C)(c1ccc(OCc2ccnc(N3CC4(COC4)C3)n2)cc1)c1ccc(O[C@H]2C[C@@H](Nc3ccc4c(c3)C(=O)N(C3CCC(=O)NC3=O)C4=O)C2)cc1 (some centres unmarked) [Example 76, 5-(((1s,3s)-3-(4-(2-(4-((2-(2-oxa-6-azaspiro[3.3]heptane-6-yl)pyrimidin-4-yl)methoxy)phenyl)propan-2-yl)phenoxy)cyclobutyl)amino)-2-(2,6-dioxopiperidin-3-yl)isoindolin-1,3-dione] | – | 11 nM | < 10 nM | 1000 to 5000 ng·h/mL | –
O=C1CCC(N2C(=O)c3ccc(N[C@H]4C[C@@H](Oc5ccc(C6(c7ccc(OCc8ccnc(N9CC%10(COC%10)C9)n8)cc7)CCCC6)cc5)C4)cc3C2=O)C(=O)N1 (some centres unmarked) [Example 361, 5-(((1s,3s)-3-(4-(1-(4-((2-(2-oxa-6-azaspiro[3.3]heptane-6-yl)pyrimidin-4-yl)methoxy)phenyl)cyclopentyl)phenoxy)cyclobutyl)amino)-2-(2,6-dioxopiperidin-3-yl)isoindolin-1,3-dione] | – | 8 nM | < 10 nM | 1000 to 5000 ng·h/mL | –
CCC(CC)(c1ccc(Oc2cnc(-c3noc(C)n3)nc2)cc1)c1ccc(O[C@H]2C[C@@H](Nc3ccc4c(c3)C(=O)N(C3CCC(=O)NC3=O)C4=O)C2)cc1 (some centres unmarked) [Example 553] | – | 15 nM | < 10 nM | 5000 to 30000 ng·h/mL | –
CC1(N)CN(c2nccc(COc3ccc(C(C)(C)c4ccc(O[C@H]5C[C@H](Nc6ccc7c(c6)C(=O)N(C6CCC(=O)NC6=O)C7=O)C5)cc4)cc3)n2)C1 (some centres unmarked) [Example 275] | – | 4 nM | < 10 nM | 1000 to 5000 ng·h/mL | –
Cc1nc(-c2cc(Oc3ccc(C(C)(C)c4ccc(O[C@H]5C[C@H](Nc6ccc7c(c6)C(=O)N(C6CCC(=O)NC6=O)C7=O)C5)cc4)cc3)ncn2)no1 (some centres unmarked) [Example 588] | – | 13 nM | < 10 nM | 5000 to 30000 ng·h/mL | –
CC(C)(c1ccc(Oc2cnc(-n3ccnn3)cn2)cc1)c1ccc(O[C@H]2C[C@H](Nc3ccc4c(c3)C(=O)N(C3CCC(=O)NC3=O)C4=O)C2)cc1 (some centres unmarked) [Example 584] | – | 4 nM | < 10 nM | 1000 to 5000 ng·h/mL | –
CC(C)(c1ccc(OCc2ccnc(N3CC4(CCO4)C3)n2)cc1)c1ccc(O[C@H]2C[C@@H](Nc3ccc4c(c3)C(=O)N(C3CCC(=O)NC3=O)C4=O)C2)cc1 (some centres unmarked) [Example 196] | – | 10 nM | < 10 nM | 1000 to 5000 ng·h/mL | –
CC1(N)CN(c2nccc(COc3ccc(C(C)(C)c4ccc(O[C@H]5C[C@@H](Nc6ccc7c(c6)C(=O)N(C6CCC(=O)NC6=O)C7=O)C5)cc4)cc3)n2)C1 (some centres unmarked) [Example 268] | – | 9 nM | < 10 nM | 1000 to 5000 ng·h/mL | –
C=CC(c1ccc(Oc2cnc(-c3nnc(C)o3)nc2)cc1)c1ccc(O[C@H]2C[C@H](Nc3ccc4c(c3)C(=O)N(C3CCC(=O)NC3=O)C4=O)C2)cc1 (some centres unmarked) [Example 373, 2-(2,6-dioxopiperidin-3-yl)-5-(((1r,3r)-3-(4-(1-(4-((2-(5-methyl-1,3,4-oxadiazol-2-yl)pyrimidin-5-yl)oxy)phenyl)allyl)phenoxy)cyclobutyl)amino)isoindolin-1,3-dione] | – | 13 nM | < 10 nM | 5000 to 30000 ng·h/mL | –
CC(C)(c1ccc(Oc2cc(F)cnc2-n2ccnn2)cc1)c1ccc(O[C@H]2C[C@H](Nc3ccc4c(c3)C(=O)N(C3CCC(=O)NC3=O)C4=O)C2)cc1 (some centres unmarked) [Example 516] | – | 10 nM | < 10 nM | 1000 to 5000 ng·h/mL | –

Reference: patent publication US20250051347A1, “BIFUNCTIONAL CHIMERIC HETEROCYCLIC COMPOUND AND USE THEREOF AS ANDROGEN RECEPTOR DEGRADER” (Hinova Pharmaceuticals, Inc., priority 2021, published 2025)
